From patent US20250041437A1, “HUMANIZED MUC1 ANTIBODY AND ANTIBODY DRUG CONJUGATE” (Sun Pharma Advanced Research Company Limited, priority 2023, published 2025)
Where a SMILES comes first, the peptide text is derived from it. [ ]: non-standard residue; d: D form. The star is where a group is joined. Dolaproine = CO[C@@H]([C@@H]1CCCN1)[C@@H](C)C(=O)O; Dil = CC[C@H](C)[C@H](NC)[C@@H](CC(=O)O)OC; X1 = C[C@@H](N*)[C@@H](O)c1ccccc1; NMeV = CN[C@H](C(=O)O)C(C)C

Assays:
[1] = test system: T47D breast carcinoma cells; assay: Growth inhibition of human cancer cell lines, T47D; type: cell-based; conditions: free MMAE
[2] = Single dose pharmacokinetics, COLO357 tumor bearing mouse, IV; type: in vivo
Description: The objective of this study was to evaluate serum, tumor and liver pharmacokinetics of TAB, CAB and uMMAE following 3 mg/kg single IV administration of M5LM4-ADC and pharmacokinetics of MMAE following 0.06 mg/kg single IV administration of MMAE alone in a COLO357 tumor bearing mouse model.
The blood samples were collected from the mouse at 0.083, 0.5, 1, 2, 4, 8, 24, 48, 72, 96, 168 and 336 hours post-dose (n=3 mice/time point; sparse sampling design) through retro-orbital plexuses and serum was immediately harvested. At 24, 48, 72, 96, 168 and 336 hour time-points, the tumor and liver were collected. Analysis of total antibody (TAB) and conjugated antibody (CAB) was done by a fit for purpose ELISA based method and analysis of free payload (MMAE) was done by a fit for purpose LC-MS/MS based method. Pharmacokinetic analysis was performed by the non-compartmental analysis tool of Phoenix WinNonlin® software.

[3] = test system: SKOV3 derived xenograft; conditions: mouse, in vivo
[4] = test system: MCF7 derived xenograft; conditions: mouse, in vivo
[5] = test system: BxPC3 pancreatic carcinoma cells; assay: Growth inhibition of human cancer cell lines, BxPC3; conditions: read-out: MMAE IC50; BxPC3, free MMAE
[6] = test system: COLO-357 pancreatic carcinoma cells; assay: Growth inhibition of human cancer cell lines, COLO-357; conditions: read-out: MMAE IC50; COLO-357, free MMAE
[7] = MMAE, MMAE 0.06 mg/kg IV, liver
[8] = MMAE, MMAE 0.06 mg/kg IV, serum
[9] = MMAE, MMAE 0.06 mg/kg IV, tumor
[10] = single IV MMAE, COLO357 tumor bearing mice

Work on `CC[C@H](C)[C@@H]([C@@H](CC(=O)N1CCC[C@H]1[C@H](OC)[C@@H](C)C(=O)N[C@H](C)[C@@H](O)c1ccccc1)OC)N(C)C(=O)[C@@H](NC(=O)[C@@H](NC)C(C)C)C(C)C` [Free MMAE, monomethyl auristatin E, reference compound] (H-[NMeV]V[Dil][Dolaproine]-X1) yielded an IC50 [1] of 70 pM, an AUC0-336 [2, 7] of 0.19 µM·h and a Cmax [2, 7] of 1.5 nM. For the same compound, the T1/2 [2, 7] was 182 h, the AUC0-24 [2, 8] was 0.018 µM·h and the AUC0-336 [2, 8] was 0.021 µM·h. It also gave an AUCINF [2, 8] of 0.021 µM·h, a CL [2, 8] of 64 mL/min/kg and a Cmax [2, 8] of 8 nM. For the same compound, the T1/2 [2, 8] was 5 h, the Tmax [2, 8] was 4.8 min and the Vss [2, 8] was 34 L/kg. The AUC0-336 [2, 9] was 1.391 µM·h, the “AUC ratio (Kp)” value [2, 9] was 66 and the Cmax [2, 9] was 11 nM. The T1/2 [2, 9] was 154 h, the “tumor exposure higher than in serum” value [2, 10] was 66 fold and the “tumor exposure higher than in the liver” value [2, 10] was 7 fold. The mortality [3] was 3 of 8, the “tumor growth inhibition (TGI)” value [3] was 106±10% and the mortality [4] was 3 of 8. For the same compound, the IC50 [5] was 20 pM and the IC50 [6] was 160 pM.
